# Values joined by “and” are separate entries in the source; they are usually repeats but may differ in a detail not shown here. Equal entries are not always repeated. “Also recorded” adds a separate entry of the source. Where two headings read alike, the source gives them in different places.
# Columns and labels:
# human PPARγ = target: T1, human PPARγ (Homo sapiens, UniProt P37231); assay type: cell-based; conditions: for fold increase in PPARγ activity relative to vehicle control: 10-fold concentration intervals (Fig. 4); for PPARγ agonist activity (result in words): 24 hr exposure, vs vehicle control
# T1 sequence (P37231 1-505): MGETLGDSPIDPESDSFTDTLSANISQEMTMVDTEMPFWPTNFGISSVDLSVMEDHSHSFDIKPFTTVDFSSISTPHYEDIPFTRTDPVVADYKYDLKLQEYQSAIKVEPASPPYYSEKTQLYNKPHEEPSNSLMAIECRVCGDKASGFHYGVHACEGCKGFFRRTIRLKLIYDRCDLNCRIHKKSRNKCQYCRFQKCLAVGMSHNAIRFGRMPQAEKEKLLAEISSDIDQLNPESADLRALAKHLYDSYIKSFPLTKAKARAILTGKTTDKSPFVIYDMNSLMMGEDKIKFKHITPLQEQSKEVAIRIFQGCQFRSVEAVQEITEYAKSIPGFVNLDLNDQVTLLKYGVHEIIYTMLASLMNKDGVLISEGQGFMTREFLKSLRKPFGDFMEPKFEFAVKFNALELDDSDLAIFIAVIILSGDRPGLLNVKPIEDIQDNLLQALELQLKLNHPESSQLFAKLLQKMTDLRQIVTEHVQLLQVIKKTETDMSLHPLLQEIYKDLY
# [1] = test system: caspase 3 activity in D283 Med cells; assay: caspase 3 activity assay in cell lysates; assay type: cell-based, human; conditions: 6 hour exposure
# D283 Med cells = assay: MTS viability assay; assay type: cell-based, human; conditions: 1 μM to 30 μM, 48 hour exposure (Fig. 6 legend)
# CHO PPARγ reporter cells = assay type: cell-based, Chinese Hamster; conditions: 0.1 μM to 100 μM; 24 hr
compound,measurement,setting,value
"C=[CH][Sn]([CH2]CCC)([CH2]CCC)[CH2]CCC [TBVT, Tributyl(vinyl)tin, reference compound]",Concentration of maximal PPARγ activity observed,human PPARγ,10 µM
same,fold increase in PPARγ activity relative to vehicle control,human PPARγ; 10 μM (10^-5 M),3 fold and 3.3 ± 0.3 fold
"[Cl][Sn]([c]1ccccc1)([c]1ccccc1)[c]1ccccc1 [TPT Cl, triphenyltin chloride, reference compound]",Concentration of maximal PPARγ activity observed,human PPARγ,0.1 µM
same,concentration above which PPARγ activity decreased,human PPARγ; non-monotonic concentration response,> 0.1 µM
same,AC50,"human PPARγ; read-out: AC50, concentration eliciting half-maximal response, 4-parameter variable slope model",3 nM and 3.3 nM
"CCCCC(CC)COC(=O)c1cc(Br)c(Br)c(Br)c1Br (stereo not shown) [TBB, 2-ethylhexyl-2,3,4,5-tetrabromobenzoate]",PPARγ agonist activity (result in words),human PPARγ,No statistical differences; also recorded: No activity
"O=P(Oc1ccccc1)(Oc1ccccc1)Oc1ccccc1 [TPP, triphenyl phosphate]",Concentration of maximal PPARγ activity observed,human PPARγ,30 µM
same,fold increase in PPARγ activity relative to vehicle control,human PPARγ; 10 μM (10^-5 M),6.23 ± 0.63 fold and 6.2 fold
same,fold increase in PPARγ activity,"human PPARγ; 30 μM, focused analysis with half-log (3-fold) increments (Fig. 5)",20 ± 2.2 fold
same,fold increase in PPARγ activity relative to vehicle control,human PPARγ; 100 μM,2.84 ± 0.34 fold
same,PPARγ agonist activity (result in words),human PPARγ,Significant agonist activity
same,"relative maximal PPARγ activity, percent of TPT Cl",human PPARγ; TPP at 30 μM,57% ± 6%
same,concentration above which caspase activity significantly increased,[1],above 1 μM
same,effect on caspase 3 activity,[1],significant dose dependent increases in caspase 3 activities
same,effect on viability,D283 Med cells,decreased viability
same,effect on cell viability,CHO PPARγ reporter cells,dose dependent decreases in cell viability
